These results are taken from patent publication US20150005506A1, “THERAPEUTIC AGENT FOR DIABETES” (Teijin Pharma Limited, priority 2012, published 2015).

What all share (format): in vivo, C57BL/6J mice
For test [1], the system named is mice loaded with a high-fat diet. Nature of the test: Random blood glucose level in mice loaded with high-fat diet. The settings on record: 3 mg/kg/day in drinking water, 10 weeks, mean ± standard deviation, n = 9 to 10. The procedure: (§1) Male C57BL/6J mice (age of 8 weeks) were loaded with a high-fat diet, with the proportion of fat-derived calories over total calories (Fat Kcal %) of 60%. Herewith, insulin resistance, impaired glucose tolerance, and diabetes mellitus are developed. In a group of febuxostat treatment (Febuxostat group), febuxostat was dissolved in tap water at a dose of 3 mg/kg/day and was administered to the mice as daily drinking water at the same time of the initiation of loading with a high-fat diet. Mice in the Vehicle group were given tap water. Moreover, in the normal animal group, mice were reared with a regular diet and tap water in the same period as the Febuxostat group and the Vehicle group. Ten weeks after the start of the high-fat diet and the administration of febuxostat, an insulin tolerance test was carried out to assess random blood glucose levels and insulin resistance. More specifically, 1.5 U/kg of insulin was intraperitoneally administered to the mice and blood glucose levels were measured at 0 minute, 30 minutes, 60 minutes, 90 minutes, 120 minutes after the administration of insulin. […] Blood glucose levels were measured at 120 minutes after the administration of glucose. […]

Test [2] has the same test system. In words: Insulin tolerance test in mice loaded with high-fat diet. As to conditions: 3 mg/kg/day in drinking water, 10 weeks. The procedure:
Male C57BL/6J mice (age of 8 weeks) were loaded with a high-fat diet, with the proportion of fat-derived calories over total calories (Fat Kcal %) of 60%. Herewith, insulin resistance, impaired glucose tolerance, and diabetes mellitus are developed. In a group of febuxostat treatment (Febuxostat group), febuxostat was dissolved in tap water at a dose of 3 mg/kg/day and was administered to the mice as daily drinking water at the same time of the initiation of loading with a high-fat diet. Mice in the Vehicle group were given tap water. Moreover, in the normal animal group, mice were reared with a regular diet and tap water in the same period as the Febuxostat group and the Vehicle group. Ten weeks after the start of the high-fat diet and the administration of febuxostat, an insulin tolerance test was carried out to assess random blood glucose levels and insulin resistance. More specifically, 1.5 U/kg of insulin was intraperitoneally administered to the mice and blood glucose levels were measured at 0 minute, 30 minutes, 60 minutes, 90 minutes, 120 minutes after the administration of insulin. Moreover, 12 weeks after the initiation of the high-fat diet and the administration of febuxostat, 0.5 g/kg of glucose was intraperitoneally administered to the mice starved for 4 hours to assess 2-hour blood glucose levels after glucose load. Blood glucose levels were measured at 120 minutes after the administration of glucose. Moreover, on the last day of the administration, blood sampling was carried out to measure blood uric acid levels.

Test [3] shares this test system. Nature of the test: Blood glucose levels 2 hours after glucose load in mice loaded with high-fat diet. The settings on record: 0.5 g/kg glucose i.p. after 4 hours starvation, 3 mg/kg/day in drinking water, 12 weeks. The procedure: as §1
The test system is the same in test [4]. Nature of the test: Blood uric acid levels in mice loaded with high-fat diet. As to conditions: last day of administration, 3 mg/kg/day in drinking water. The procedure:
as §1

Test [5] has the same test system. Nature of the test: Glucose tolerance test in mice loaded with high-fat diet (Example 2). The settings on record: 3 mg/kg/day in drinking water, 12 weeks. On the procedure:
Male C57BL/6J mice (8 week-old) were loaded with a high-fat diet with the proportion of fat-derived calories over the total calories (Fat Kcal %) of 60%. Herewith, insulin resistance, impaired glucose tolerance, and diabetes mellitus are developed. At the same time of the initiation of loading high-fat diet, febuxostat dissolved in tap water at 3 mg/kg/day was administered to mice as drinking water in the Febuxostat group and mice in the Vehicle group were reared by administration of tap water as drinking water. Twelve weeks after the loading of a high-fat diet and the administration of febuxostat, a glucose tolerance test was carried out to assess impaired glucose tolerance. More specifically, the mice were made to fast for 4 hours; thereafter 0.5 g/kg of glucose was intraperitoneally administered to the mice. And blood sampling was conducted at 0 minute, 15 minutes, 30 minutes, 60 minutes, 90 minutes, and 120 minutes after glucose load respectively to measure glucose levels.

For the molecule `Cc1nc(-c2ccc(OCC(C)C)c(C#N)c2)sc1C(=O)O` [Febuxostat, 2-(3-cyano-4-isobutyloxyphenyl)-4-methyl-5-thiazole carboxylic acid], the “Random blood glucose level” value in test [1] is 244 ± 7 mg/dL. Besides, the “Ratio of blood glucose levels relative to the value before insulin administration” value in test [2] (30 min after 1.5 U/kg insulin i.p.) is 66 ± 4%; in test [2] (60 min after 1.5 U/kg insulin i.p.), 62 ± 3%; in test [2] (90 min after 1.5 U/kg insulin i.p.) it was 71 ± 4%; in test [2] (120 min after 1.5 U/kg insulin i.p.), 91 ± 5%. Moreover, in test [2] (after 1.5 U/kg insulin i.p.), the “Blood glucose level AUC (0-2 hour)” value was 371 ± 17 mg·h/dL. Further, in test [3], the “Blood glucose levels 2 hours after glucose load” value is listed as 396 ± 18 mg/dL. Moreover, the “Blood uric acid levels” value in test [4] worked out at 0.7 ± 0.1 mg/dL. The Blood glucose levels in test [5] (0 min after 0.5 g/kg glucose i.p., n = 5 to 6) amounted to 214 ± 17 mg/dL; in test [5] (15 min after 0.5 g/kg glucose i.p.), 368 ± 29 mg/dL; in test [5] (30 min after 0.5 g/kg glucose i.p.), 378 ± 26 mg/dL; in test [5] (60 min after 0.5 g/kg glucose i.p.), 349 ± 35 mg/dL; in test [5] (90 min after 0.5 g/kg glucose i.p.), 323 ± 43 mg/dL; in test [5] (120 min after 0.5 g/kg glucose i.p.), 279 ± 31 mg/dL.
